{"source": "patent US8809386B2", "about": "“Use of dynamin ring stabilizers” (Children's Medical Research Institute, priority 2009, dated 2014)", "key": {"endocytosis": {"tested_on": "endocytosis", "assay": "Endocytosis in cells (data not shown)", "format": "cell-based", "experimental": "(§1) To determine if the in vitro action of the dynamin ring stabilizers also occurs in cells, the effect of Bis-T-23 on the actin cytoskeleton in cultured mouse podocytes was tested (FIG. 19). […] Thus, the observed increase in stress fibers is unlikely due to inhibition of endocytosis."}, "[1]": {"tested_on": "purified full length dynamin I", "assay": "Electron microscopy of dynamin ring formation in the absence of a template", "format": "biochemical", "details": "5.4 μM, 200 nM dynamin, no template, FIG. 9C", "experimental": "Dynamin was then examined by electron microscopy. […] The rings are bona fide dynamin rings (B).\nNext, the effect of a ring stabilizer Bis-T-23 on the formation of dynamin rings in the absence of a template like PS liposomes was examined. At high concentrations in vitro, dynamin is well known to self-assemble into rings that are detectable by EM (Hinshaw and Schmid, 1995). Such self assembly requires high dynamin concentrations typically in the order of 500-1000 nM and is not observed at lower dynamin concentrations. Specifically, the effect of Bis-T-23 (5.4 μM) on 200 nM dynamin in the absence of template was tested, which is well below the concentration threshold for self-assembly. […] High power images confirmed that the electron dense structures are bona fide dynamin rings (FIG. 9B). […] The findings with basal dynamin are completely unexpected for a dynamin inhibitor and are indicative of the ring stabilizer activity."}, "dynamin I": {"tested_on": "dynamin I", "assay": "Dynamin disassembly centrifugation assay, helix preassembled on PS liposomes", "format": "biochemical", "details": "FIG. 7", "experimental": "Briefly, dynamin I was preassembled as a helix in the presence of PS liposomes for 30 min, after which the dynamin ring stabilizer Bis-T-23 or non-dynamin ring stabilizer dynole 34-2 (see Example 4) were added. The samples were then centrigued in a microfuge for 10 min to collect supernatans (Sup) or pellets. In this assay, helical dynamin is found primarily in the pellet. However, the addition of either NaCl (150 mM) or Mg/GTP (1 mM) is known to disassemble dynamin and it is found primarily in the supernatant (see FIG. 7). […] This unique mechanism of action explains why dynamin ring stabilizers can stimulate basal GTPase while inhibiting helical dynamin GTPase activity at the same time."}, "cultured mouse podocytes": {"tested_on": "cultured mouse podocytes", "assay": "Actin cytoskeleton and focal adhesions in cultured podocytes (rhodamine-phalloidin, anti-paxillin)", "format": "cell-based", "details": "10 min after addition", "experimental": "FIG. 19 is a photograph showing the effects of Bis-T-23 on the actin cytoskeleton in podocytes. Cells were stained using rhodamine-phalloidin for F-actin (left column) and anti-paxillin monoclonal antibody (centre column). The merged staining is shown on the right column.\nas §1"}, "full length dynamin I": {"target": "T1, full length dynamin I (Ovis aries, UniProt A0ACI6NZN1)", "T1 sequence (A0ACI6NZN1 1-864)": "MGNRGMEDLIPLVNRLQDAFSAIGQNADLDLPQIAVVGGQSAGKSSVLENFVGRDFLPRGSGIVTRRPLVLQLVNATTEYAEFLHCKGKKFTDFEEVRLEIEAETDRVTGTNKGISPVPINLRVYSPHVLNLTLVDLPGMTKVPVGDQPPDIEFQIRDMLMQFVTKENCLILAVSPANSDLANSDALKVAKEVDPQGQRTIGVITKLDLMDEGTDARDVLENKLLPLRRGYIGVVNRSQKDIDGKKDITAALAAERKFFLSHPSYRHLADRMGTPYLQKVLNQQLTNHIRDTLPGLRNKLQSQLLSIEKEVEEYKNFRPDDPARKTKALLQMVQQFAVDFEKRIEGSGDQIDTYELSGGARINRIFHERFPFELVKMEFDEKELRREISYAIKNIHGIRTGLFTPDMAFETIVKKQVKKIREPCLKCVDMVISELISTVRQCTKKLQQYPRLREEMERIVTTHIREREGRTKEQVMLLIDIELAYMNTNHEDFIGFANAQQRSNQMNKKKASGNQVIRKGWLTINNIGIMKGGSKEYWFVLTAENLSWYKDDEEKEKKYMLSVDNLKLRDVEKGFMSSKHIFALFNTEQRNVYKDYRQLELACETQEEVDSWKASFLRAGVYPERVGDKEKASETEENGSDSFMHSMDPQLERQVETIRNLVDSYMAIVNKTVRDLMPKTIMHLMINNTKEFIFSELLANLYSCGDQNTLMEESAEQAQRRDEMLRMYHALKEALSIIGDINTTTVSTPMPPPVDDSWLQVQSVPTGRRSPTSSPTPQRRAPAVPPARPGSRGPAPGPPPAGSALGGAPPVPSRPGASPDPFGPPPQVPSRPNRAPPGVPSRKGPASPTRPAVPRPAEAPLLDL", "assay": "Basal dynamin GTPase activity in the absence of PS liposomes or other template (ring stabilizer activity)", "format": "biochemical, sheep", "experimental": "The compounds were present at the indicated concentrations and the concentration causing half-maximal stimulation is shown as the EC50.\nDynamin I (50 nM) GTPase stimulation was performed in the absence of the detergent Tween-80 (and in the absence of any known activators such as PS liposomes, nanotubes or microtubules). […] The GTPase activity of dynamin I (dynI; 200 nM) was measured in the absence of lipid activators (and in the presence of standard Tween-80 at 0.06%).\nA compound (whether a dynamin inhibitor or not) can be identified as a dynamin ring stabilizer by assaying for its capacity to promote accumulation of dynamin rings and/or to inhibit disassembly of dynamin rings. […] GTPase activity of dynamin or dynamin rings can be determined by any conventionally known method (e.g., see Quan and Robinson. 2005). Such conditions include: (a) the absence of a helix assembly template such as liposomes, microtubules or lipid nanotubes, and (b) higher concentrations of dynamin than normally required for detecting template stimulated activity, typically 50-500 nM dynamin instead of 1-20 nM. Thus, ring stabilizer activity can be identified by the ability to stimulate the GTPase activity of full length dynamin in the absence of other stimulatory factors (such as PS liposomes, microtubules or nanotubes). Additional defining characteristics are available but are not essential if the first condition has been met. One such additional characteristic of ring stabilizer activity is that the stimulated activity occurs after a lag phase of a few minutes, rather than being an immediate activation in vitro. […] Such conditions typically mean utilising 50-200 nM dynamin in the absence of a template as distinct from higher concentrations where self-assembly is known to occur without the addition of a dynamin ring stabilizer.\nNext, a time course experiment of Bis-T-23 stimulation of dynamin GTPase (FIG. 3) was conducted. […] The lag phase is thought to indicate the time required for dynamin to assemble as rings."}}}
{"compound": "N#CC(=Cc1cc(O)c(O)c(O)c1)C(=O)NCCCNC(=O)C(C#N)=Cc1cc(O)c(O)c(O)c1", "note": "[Bis-T-23, 2-cyano-N-{3-[2-cyano-3-(3,4,5-trihydroxyphenyl)-acryloylamino]-propyl}-3-(3,4,5-trihydroxyphenyl)-acrylamide]", "values": [{"measurement": "endocytosis", "setting": "endocytosis", "value": "inhibits endocytosis"}, {"measurement": "increase in bona fide dynamin rings", "setting": "[1]", "value": 6, "unit": "fold"}, {"measurement": "disassembly of helical dynamin by NaCl (150 mM) or Mg/GTP (1 mM)", "setting": "dynamin I", "value": "reduce the disassembly of helical dynamin"}, {"measurement": "stress fibers in podocytes", "setting": "cultured mouse podocytes; FIG. 19", "value": "dramatic increase in well-defined stress fibers"}, {"measurement": "number of focal adhesions (paxillin staining)", "setting": "cultured mouse podocytes; FIG. 19B", "value": "dramatic increase in the number of focal adhesions"}, {"measurement": "lag phase before stimulation of dynamin GTPase activity", "setting": "full length dynamin I; 5 μM, 800 nM dynamin, 30 mM NaCl, FIG. 3", "value": "about 4 minutes"}, {"measurement": "stimulation of basal dynamin GTPase activity in the absence of Tween-80", "setting": "full length dynamin I; Dynamin I 50 nM, no Tween-80, no activators, FIG. 11A", "value": "are dynamin ring stabilizers"}, {"measurement": "concentration causing 50% activation of basal dynamin activity (EC50)", "setting": "full length dynamin I; FIG. 2, compared with IC50 of 500 nM", "value": "about the same value"}, {"measurement": "dynamin concentration at which basal GTPase activity is stimulated", "setting": "full length dynamin I; absence of liposomes, 5 μM, FIG. 1", "value": "≥ 100", "unit": "nM"}]}
